Among the data in patent US8420630B2 (Boehringer Ingelheim Pharma GmbH & Co. KG, priority 2001, dated 2013) are IC50 values, retold here.

The target of this experiment is T1, CDK1/cyclinB1 (Homo sapiens, UniProt P06493).
T1 construct: made in house; host or cells: High Five insect cells (Trichoplusia ni), baculovirus coinfection
T1 sequence (P06493 whole entry): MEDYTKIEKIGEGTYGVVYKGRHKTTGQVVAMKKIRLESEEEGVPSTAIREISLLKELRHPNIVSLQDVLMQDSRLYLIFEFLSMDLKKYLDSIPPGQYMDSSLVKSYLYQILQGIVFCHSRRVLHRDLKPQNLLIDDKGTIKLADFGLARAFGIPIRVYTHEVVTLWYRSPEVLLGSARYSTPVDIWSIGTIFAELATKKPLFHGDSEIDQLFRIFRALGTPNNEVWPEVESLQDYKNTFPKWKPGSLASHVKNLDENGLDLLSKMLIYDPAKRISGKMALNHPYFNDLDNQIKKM
T1 sequence (P14635 whole entry partner): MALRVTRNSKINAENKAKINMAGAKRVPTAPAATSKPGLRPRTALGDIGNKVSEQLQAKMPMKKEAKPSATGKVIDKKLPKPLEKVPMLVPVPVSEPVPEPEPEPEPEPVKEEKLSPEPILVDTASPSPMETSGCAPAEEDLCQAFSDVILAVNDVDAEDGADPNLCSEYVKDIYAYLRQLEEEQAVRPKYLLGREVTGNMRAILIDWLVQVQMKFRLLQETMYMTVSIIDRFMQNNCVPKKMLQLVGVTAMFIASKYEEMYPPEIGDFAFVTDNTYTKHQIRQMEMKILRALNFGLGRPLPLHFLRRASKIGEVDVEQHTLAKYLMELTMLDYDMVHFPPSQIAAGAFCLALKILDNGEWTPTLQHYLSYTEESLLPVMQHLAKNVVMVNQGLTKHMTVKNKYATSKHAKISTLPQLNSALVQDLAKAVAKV
Kind of experiment: Cyclin B1-CDK1 kinase inhibition test. The experiment is classed as biochemical. Particulars: CDK1 tests (Example 13); recombinant cyclin B1/CDK1, substrate histone H1; read-out: CDK1/cyclinB1 IC50 value. The method in brief: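 Baculovirus-expressed CDK1/cyclin B1 phosphorylated histone H1 with ATP mix containing 0.045 mM ATP plus ^33P-ATP for 30 min at 30 °C. Protein was precipitated with TCA and filter-bound radioactivity read by scintillation counting. Olomoucin at 30 and 300 μM final served as internal control.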
Turning to `O=C(Nc1ccccc1)c1ccc(Nc2ncc([N+](=O)[O-])c(N3CCc4[nH]cnc4C3)n2)cc1` [Example 1(026), 2-(4-phenylaminocarbonyl-phenylamino)-4-(1,4,6,7-tetrahydro-imidazo[4,5-c]pyridin-5-yl)-5-nitro-pyrimidine], the IC50 is below 100 nM.
To `O=C1CCCN1CCCNc1nc(Nc2ccc(Cl)cc2)ncc1C(F)(F)F` [Example 1(011), 2-(4-chlorophenylamino)-4-(3-(2-oxo-pyrrolidin-1-yl)-propyl-1-amino)-5-trifluoromethyl-pyrimidine] belongs below 100 nM.
Next, `FC(F)(F)c1cnc(Nc2ccc(Cl)c(Cl)c2)nc1NCCCN1CC2C=CC1C2` (centres unmarked) [Example 1(009), 2-(3,4-dichlorophenylamino)-4-(3-(2-aza-bicyclo[2.2.1]hept-5-en-2-yl)-propylamino)-5-trifluoro-methyl-pyrimidine]: below 100 nM.
Turning to `NC1CCCC(Nc2nc(Nc3ccc(Cl)cc3)ncc2[N+](=O)[O-])C1` (centres unmarked) [Example 1(034), 2-(4-chloro-phenylamino)-4-(3-amino-cyclohexylamino)-5-nitro-pyrimidine], the IC50 is below 100 nM.
To `FC(F)(F)c1cnc(Nc2ccc(Cl)cc2)nc1N1CCc2[nH]cnc2C1` [Example 1(004), 2-(4-chlorophenylamino)-4-(1,4,6,7-tetrahydro-imidazo[4,5-c]pyridin-5-yl)-5-trifluoromethyl-pyrimidine] belongs below 100 nM; to `CN1CCC2(CCN(c3nc(Nc4ccc(Cl)c(Cl)c4)ncc3C(F)(F)F)C2)C1` (centres unmarked) [Example 1(117), 2-(3,4-dichlorophenylamino)-4-(7-methyl-2,7-diaza-spiro[4.4]non-2-yl)-5-trifluoromethyl-pyrimidine], below 100 nM; to `O=C1CCCN1CCCNc1nc(Nc2cccc(Br)c2)ncc1C(F)(F)F` [Example 1(047), 2-(3-bromo-phenylamino)-4-(3-(2-oxo-pyrrolidin-1-yl)-propyl-1-amino)-5-trifluoromethyl-pyrimidine], below 100 nM.
Next, `CC(=O)NCCCNc1nc(Nc2ccc(Cl)c(Cl)c2)ncc1C(F)(F)F` [Example 7(010), N-(3-[2-(3,4-dichloro-phenylamino)-5-trifluoromethyl-pyrimidin-4-ylamino]-propyl)-acetamide]: below 100 nM; `Cc1cc(Nc2ncc([N+](=O)[O-])c(NCC3CCC(CN)CC3)n2)ccc1Cl` (centres unmarked) [Example 1(115), 2-(4-chloro-3-methyl-phenylamino)-4-(4-aminomethyl-cyclohexylmethylamino)-5-nitro-pyrimidine]: below 100 nM; `O=C1CCCN1CCCNc1nc(Nc2ccccc2)ncc1C(F)(F)F` [Example 1(031), 2-phenylamino-4-(3-(2-oxo-pyrrolidin-1-yl)-propyl-1-amino)-5-trifluoromethyl-pyrimidine]: below 100 nM.
Consider `FC(F)(F)c1cnc(Nc2ccccc2)nc1N1CCc2[nH]cnc2C1` [Example 1(118), 2-phenylamino-4-(1,4,6,7-tetrahydro-imidazo[4,5-c]pyridin-5-yl)-5-trifluoromethyl-pyrimidine], for which the IC50 was below 100 nM.
For `NC1CCCC(Nc2nc(Nc3cc(Cl)cc(Cl)c3)ncc2C(F)(F)F)C1` (centres unmarked) [Example 1(020), 2-(3,5-dichloro-phenylamino)-4-(3-amino-cyclohexylamino)-5-trifluoromethyl-pyrimidine], the IC50 is below 100 nM.
Consider `CC(=O)NC(C)(C)CNc1nc(Nc2ccc(S(=O)(=O)N3CCOCC3)cc2)ncc1C(F)(F)F` [Example 1(685), N-(1,1-dimethyl-2-{2-[4-(morpholine-4-sulphonyl)-phenylamino]-5-trifluoromethyl-pyrimidin-4-ylamino}-ethyl)-acetamide], for which the IC50 was below 100 nM.
Take `NC(=O)c1ccc(Nc2ncc(Br)c(NCCCN3CCCC3=O)n2)cc1` [Example 1(662)]: the IC50 was below 100 nM.
To `O=[N+]([O-])c1cnc(Nc2ccc(Cl)cc2)nc1N1CCCC(CCCCN2CCCC2)C1` (centres unmarked) [Example 1(028), 2-(4-chloro-phenylamino)-4-(3-(4-(pyrrolidin-1-yl)butyl)-piperidin-1-yl)-5-nitro-pyrimidine] belongs below 100 nM.
To `O=[N+]([O-])c1cnc(Nc2ccc(Cl)cc2)nc1N1CCc2[nH]cnc2C1` [Example 1(010), 2-(4-chlorophenylamino)-4-(1,4,6,7-tetrahydro-imidazo[4,5-c]pyridin-5-yl)-5-nitro-pyrimidine] belongs below 100 nM; to `CCC(=O)NCCCNc1nc(Nc2ccc3cnn(C)c3c2)ncc1C(F)(F)F` [Example 7(006), N-{3-[2-(1-methyl-1H-indazol-6-ylamino)-5-trifluoromethyl-pyrimidin-4-ylamino]-propyl}-propionamide], below 100 nM; to `CC(=O)NCCNc1nc(Nc2ccc(S(=O)(=O)N3CCOCC3)cc2)ncc1C(F)(F)F` [Example 2(057), N-(2-{2-[4-(Morpholin-4-sulphonyl)-phenylamino]-5-trifluoromethyl-pyrimidin-4-ylamino}-ethyl)-acetamide], below 100 nM.
`CC(=O)NCCNc1nc(Nc2ccc(N)cc2)ncc1C(F)(F)F` [Example 2(004), N-{2-[2-(4-amino-phenylamino)-5-trifluoromethyl-pyrimidin-4-ylamino]-ethyl}-acetamide]: the IC50 is below 100 nM.
Next, `CN(C)S(=O)(=O)c1ccc(Nc2ncc(Cl)c(N3CCc4[nH]cnc4C3)n2)cc1` [Example 2(136), 4-[5-Chloro-4-(1,4,6,7-tetrahydro-imidazo[4,5-c]pyridin-5-yl)-pyrimidin-2-ylamino]-N,N-dimethyl-phenylsulphonamide]: below 100 nM.
On to `O=C1CCCN1CCCNc1nc(Nc2ccc3[nH]cnc3c2)ncc1C(F)(F)F` [Example 2(037), 1-{3-[2-(1H-Benzimidazol-5-ylamino)-5-trifluoromethyl-pyrimidin-4-ylamino]-propyl}-pyrrolidin-2-one], for which the IC50 was below 100 nM.
For the molecule `CN(C)[C@H]1CC[C@H](Nc2nc(Nc3ccc(C(=O)O)cc3)ncc2C(F)(F)F)CC1` [Example 1(054), 2-(4-carboxy-phenylamino)-4-(trans-4-dimethylamino-cyclohexylamino)-5-trifluoromethyl-pyrimidine], the IC50 was below 100 nM.
To `Cc1cnc(Nc2ccc3cn[nH]c3c2)nc1NCCCN1CCCC1=O` [Example 2(075), 1-{3-[2-(1H-indazol-6-ylamino)-5-methyl-pyrimidin-4-ylamino]-propyl}-pyrrolidin-2-one] belongs below 100 nM; to `CC(C)C(=O)NCCCNc1nc(Nc2ccc3cnn(C)c3c2)ncc1C(F)(F)F` [Example 7(002), N-{3-[2-(1-methyl-1H-indazol-6-ylamino)-5-trifluoromethyl-pyrimidin-4-ylamino]-propyl}-isobutyramide], below 100 nM.
To `CNC(=O)c1ccc(Nc2ncc(C(F)(F)F)c(NCCNC(C)=O)n2)cc1Cl` [Example 8(003), 4-[4-(2-acetylamino-ethylamino)-5-trifluoromethyl-pyrimidin-2-ylamino]-2-chloro-N-methyl-benzamide] belongs below 100 nM; to `O=C(O)CCc1ccc(Nc2ncc(C(F)(F)F)c(N3CCc4[nH]cnc4C3)n2)cc1` [Example 1(023), 2-(4-(2-carboxy-1-ethyl-)phenylamino)-4-(1,4,6,7-tetrahydro-imidazo[4,5-c]pyridin-5-yl)-5-trifluoromethyl-pyrimidine], below 100 nM.
Next, `CC(=O)NCCNc1nc(Nc2ccc(Cl)cc2)ncc1C(F)(F)F` [Example 2(016), 2-(4-chloro-phenylamino)-4-(2-acetylamino-ethylamino)-5-trifluoromethyl-pyrimidine]: below 100 nM; `COCC(=O)NCCCNc1nc(Nc2ccc3cnn(C)c3c2)ncc1C(F)(F)F` [Example 7(013), 2-methoxy-N-{3-[2-(1-methyl-1H-indazol-6-ylamino)-5-trifluoromethyl-pyrimidin-4-ylamino]-propyl}-acetamide]: below 100 nM; `CC(=O)NCCNc1nc(Nc2cccc([N+](=O)[O-])c2)ncc1C(F)(F)F` [Example 2(010), 2-(3-Nitro-phenylamino)-4-(2-acetylamino-ethylamino)-5-trifluoromethyl-pyrimidine]: below 100 nM.
For `CC(=O)NCCNc1nc(Nc2ccc(Cl)c(C(F)(F)F)c2)ncc1C(F)(F)F` [Example 2(013), 2-(4-chloro-3-trifluoromethyl-phenylamino)-4-(2-acetylamino-ethylamino)-5-trifluoromethyl-pyrimidine], the IC50 was below 100 nM.
Next, `NC1CCC(Nc2nc(Nc3ccc(C(=O)O)cc3)ncc2C(F)(F)F)CC1` (centres unmarked) [Example 1(111), 2-(4-carboxyphenylamino)-4-(4-amino-cyclohexylamino)-5-trifluoromethyl-pyrimidine]: below 100 nM; `O=S(=O)(c1ccc(Nc2ncc(C(F)(F)F)c(N3CCc4nc[nH]c4C3)n2)cc1)N1CCOCC1` [Example 1(695), [4-(Morpholin-4-sulphonyl)-phenyl]-[4-(3,4,6,7-tetrahydro-imidazo[4,5-5]pyridin-5-yl)-5-trifluoromethyl-pyrimidin-2-yl]-amine]: below 100 nM.
Turning to `CS(=O)(=O)NCCNc1nc(Nc2ccc(Cl)c(Cl)c2)ncc1C(F)(F)F` [Example 7(001), N-(2-[2-(3,4-dichloro-phenylamino)-5-trifluoromethyl-pyrimidin-4-ylamino]-ethyl)-methanesulphonamide], the IC50 is below 100 nM.
Take `CC(=O)NCCNc1nc(Nc2ccc3[nH]ncc3c2)ncc1C(F)(F)F` [Example 2(045), N-{2-[2-(1H-Indazol-5-ylamino)-5-trifluoromethyl-pyrimidin-4-ylamino]-ethyl}-acetamide]: the IC50 is below 100 nM.
As for `NCCCCCNc1nc(Nc2ccc(Cl)cc2)ncc1C(F)(F)F` [Example 1(079), 2-(4-chloro-phenylamino)-4-(5-amino-pentyl-1-amino)-5-trifluoromethyl-pyrimidine], the IC50 was below 100 nM.
